The record followed here is article doi:10.1101/2020.11.18.387670v2 (biorxiv, 2020).

Test [1] concerns the target T1, α-enolase (ENO1) (Homo sapiens, UniProt P06733, K330E). Put plainly: SPR. The test is classed as binding.
The target in test [2] is T1, α-enolase (ENO1). Put plainly: PKM1-coupled luminescent Kinase-Glo assay. Format: biochemical.
Test [3] deals with T2, α-enolase (ENO1) (Homo sapiens, UniProt P06733). Put plainly: SPR. Format: binding.
Test [4] deals with T2, α-enolase (ENO1). In words: PKM1-coupled luminescent Kinase-Glo assay. The test is classed as biochemical. (In general: Kinase-Glo measures the ATP left after a reaction by luminescence.)
The target in another test is PKM2 (Homo sapiens, UniProt P14618). Put plainly: SPR. The test is classed as binding.
PKM2, sequence (P14618 2-531): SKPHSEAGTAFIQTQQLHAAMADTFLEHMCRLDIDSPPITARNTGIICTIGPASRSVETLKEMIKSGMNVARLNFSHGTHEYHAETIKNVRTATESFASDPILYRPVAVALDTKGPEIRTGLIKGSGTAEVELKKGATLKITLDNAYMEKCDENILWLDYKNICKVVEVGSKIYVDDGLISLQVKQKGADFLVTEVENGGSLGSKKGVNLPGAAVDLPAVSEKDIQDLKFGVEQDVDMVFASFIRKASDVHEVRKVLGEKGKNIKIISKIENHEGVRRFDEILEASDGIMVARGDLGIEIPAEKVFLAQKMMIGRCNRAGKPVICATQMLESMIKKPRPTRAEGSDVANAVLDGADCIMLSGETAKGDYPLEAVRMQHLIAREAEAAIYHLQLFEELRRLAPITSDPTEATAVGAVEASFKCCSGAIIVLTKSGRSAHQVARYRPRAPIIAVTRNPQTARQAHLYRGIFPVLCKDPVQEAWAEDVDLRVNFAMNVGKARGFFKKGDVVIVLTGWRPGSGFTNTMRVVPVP
The target of another test is TRIM28 (Homo sapiens, UniProt Q13263). In words: SPR. Format: binding.
TRIM28, sequence (Q13263 whole entry): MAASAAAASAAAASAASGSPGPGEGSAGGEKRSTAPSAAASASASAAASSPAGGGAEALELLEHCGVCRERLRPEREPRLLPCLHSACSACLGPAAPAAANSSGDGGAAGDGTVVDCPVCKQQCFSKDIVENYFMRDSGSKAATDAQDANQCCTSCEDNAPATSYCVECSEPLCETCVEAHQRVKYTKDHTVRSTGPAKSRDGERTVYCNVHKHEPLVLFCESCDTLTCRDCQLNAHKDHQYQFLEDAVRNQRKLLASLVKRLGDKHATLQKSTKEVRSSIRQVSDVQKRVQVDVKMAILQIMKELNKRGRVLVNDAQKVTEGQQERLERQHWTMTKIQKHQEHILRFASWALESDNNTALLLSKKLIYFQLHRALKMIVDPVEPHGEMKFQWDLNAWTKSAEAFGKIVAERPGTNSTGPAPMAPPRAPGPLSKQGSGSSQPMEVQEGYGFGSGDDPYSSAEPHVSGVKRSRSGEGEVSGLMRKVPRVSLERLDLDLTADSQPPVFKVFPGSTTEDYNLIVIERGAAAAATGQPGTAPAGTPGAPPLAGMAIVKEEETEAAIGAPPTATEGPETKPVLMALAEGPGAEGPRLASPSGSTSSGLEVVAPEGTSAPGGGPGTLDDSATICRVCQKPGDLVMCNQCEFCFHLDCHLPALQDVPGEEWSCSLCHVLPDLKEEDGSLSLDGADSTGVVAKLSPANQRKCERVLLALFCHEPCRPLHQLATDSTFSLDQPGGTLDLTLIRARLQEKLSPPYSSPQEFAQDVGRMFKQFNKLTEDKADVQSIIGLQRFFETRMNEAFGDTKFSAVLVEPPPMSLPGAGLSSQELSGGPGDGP
The next test concerns the target GAPDH (Homo sapiens, UniProt P04406). In words: NADH absorbance at […] nm. The test is classed as biochemical. The following applies: activator, allosteric suggested; 1 mM NAD+, 2.88 mM G3P, 20 mM arsenate, pH 8.5.

T1 sequence (P06733 whole entry K330E): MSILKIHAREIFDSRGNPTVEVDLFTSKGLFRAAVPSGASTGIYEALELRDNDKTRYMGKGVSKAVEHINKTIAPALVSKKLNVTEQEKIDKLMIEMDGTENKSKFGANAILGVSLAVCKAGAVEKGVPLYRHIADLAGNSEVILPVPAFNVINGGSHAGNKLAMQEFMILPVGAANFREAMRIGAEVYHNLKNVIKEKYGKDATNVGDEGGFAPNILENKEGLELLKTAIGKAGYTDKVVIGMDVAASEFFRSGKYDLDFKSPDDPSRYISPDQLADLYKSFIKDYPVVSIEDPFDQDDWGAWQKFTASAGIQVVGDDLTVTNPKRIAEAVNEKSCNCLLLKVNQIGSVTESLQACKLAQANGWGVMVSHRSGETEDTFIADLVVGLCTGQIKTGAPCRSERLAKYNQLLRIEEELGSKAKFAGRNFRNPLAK
T2 sequence (P06733 whole entry): as the sequence (P06733 whole entry K330E) above, with E330K counted along it
GAPDH, sequence (P04406 2-335): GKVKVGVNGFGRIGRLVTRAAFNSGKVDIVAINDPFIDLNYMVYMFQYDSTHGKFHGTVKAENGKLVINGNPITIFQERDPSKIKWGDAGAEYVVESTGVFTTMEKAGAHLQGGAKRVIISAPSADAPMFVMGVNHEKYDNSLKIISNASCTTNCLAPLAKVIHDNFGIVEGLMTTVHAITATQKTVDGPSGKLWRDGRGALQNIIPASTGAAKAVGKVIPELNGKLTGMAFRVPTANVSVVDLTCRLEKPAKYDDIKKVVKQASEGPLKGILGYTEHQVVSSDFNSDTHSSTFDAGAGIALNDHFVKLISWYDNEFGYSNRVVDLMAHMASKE

Broadly, the Kd is the constant that tells how readily two partners part at equilibrium. By IC50 is commonly meant the midpoint of a concentration-inhibition curve. As to `O=CC(O)COP(=O)(O)O` (racemic) [G3P], the results for the dissociation constant Kd on α-enolase (ENO1) [1] and on α-enolase (ENO1) [3] were 10.3 µM and 25.4 nM, respectively. For the same compound, the IC50 was 1.17 mM against α-enolase (ENO1) [2] and 113 µM against α-enolase (ENO1) [4].
With `O=C(O)[C@H](O)COP(=O)(O)O` [3PG], at PKM2, the Kd was determined as 260 nM.
`C[C@H](O)C(=O)O` [lactate] gave a dissociation constant Kd at TRIM28 of 41.2 nM.
On to `CC(=O)C(=O)O` [pyruvate], for which, at GAPDH, the “NADH absorbance at 340 nm” value is “pyruvate can bind to and activate GAPDH”.
